Data as given in patent publication US20120178915A1, “PYRIMIDINE DERIVATIVES AND ANALOGS, PREPARATION METHOD AND USE THEREOF” (priority 2009, published 2012).
Values after ≈ are worked out from the molar mass of the structure shown. Like-named read-outs stand apart in the source and are kept apart here.

What was measured:
[1] = tested on: Bacillus cereus 246; experiment: microbe, parasite or virus in culture; format: cell-based; details: 37° C., 24 h, read-out: Minimum Inhibitory Concentration, MIC
[2] = tested on: MRSA 2152; experiment: Antibacterial studies in vivo, survival of mice infected with MRSA 2152; details: dose mg/kg: ciprofloxacin 20, 3: 30, 7: 40, 21: 50, 33: 25, 70: 70; for Survival rate (%) (life prolongation rate): (survival days of test group − blank group)/blank group ×100%, MRSA 2152 mice, tail vein; for Survival: mice inoculated intraperitoneally with MRSA 2152, test compound by tail vein, repeated after six hours, saline 1.3 days
[3] = tested on: Enterococcus fecal F631 (VRE); experiment: organism not typed; format: cell-based; details: 24 h, read-out: Minimum Inhibitory Concentration, MIC
[4] = tested on: Enterococcus faecalis F2518 (VRE); experiment: microbe, parasite or virus in culture; format: cell-based; details: 24 h, read-out: Minimum Inhibitory Concentration, MIC
[5] = MIC broth microdilution; format: cell-based; details: Microorganism 33, Dermatophytosis; 37° C., 24 h; read-out: Minimum Inhibitory Concentration, MIC
[6] = tested on: Oral candidiasis; experiment: MIC broth microdilution; format: cell-based; details: Microorganism 32, Oral candidiasis; 37° C., 24 h; read-out: Minimum Inhibitory Concentration, MIC
[7] = tested on: Staphylococcus aureus 43300 (MRSA); experiment: microbe, parasite or virus in culture; format: cell-based; details: 24 h, read-out: Minimum Inhibitory Concentration, MIC
[8] = tested on: Corynebacterium diphtheriae; experiment: microbe, parasite or virus in culture; format: cell-based; details: 37° C., 24 h, read-out: Minimum Inhibitory Concentration, MIC
[9] = tested on: Streptococcus bovis 10035; experiment: microbe, parasite or virus in culture; format: cell-based; details: Streptococcus equinus, 37° C., 24 h, read-out: Minimum Inhibitory Concentration, MIC
[10] = tested on: Enterococcus faecalis 51299; experiment: microbe, parasite or virus in culture; format: cell-based; details: Enterococcus faecalis, 51299, 24 h, read-out: Minimum Inhibitory Concentration, MIC
[11] = tested on: Bacillus anthracis 1; experiment: microbe, parasite or virus in culture; format: cell-based; details: Bacillus anthracis, 1, 24 h, read-out: Minimum Inhibitory Concentration, MIC
[12] = tested on: Streptococcus pneumoniae 6303 (PRSP); experiment: microbe, parasite or virus in culture; format: cell-based; details: 24 h, read-out: Minimum Inhibitory Concentration, MIC
[13] = tested on: Enterococcus faecalis 29212; experiment: microbe, parasite or virus in culture; format: cell-based; details: 37° C., 24 h, read-out: Minimum Inhibitory Concentration, MIC
[14] = tested on: Staphylococcus aureus 704 (MRSA); experiment: microbe, parasite or virus in culture; format: cell-based; details: 24 h, read-out: Minimum Inhibitory Concentration, MIC
[15] = tested on: Enterococcus faecalis 19433; experiment: microbe, parasite or virus in culture; format: cell-based; details: 37° C., 24 h, read-out: Minimum Inhibitory Concentration, MIC
[16] = tested on: Clostridium perfringens; experiment: microbe, parasite or virus in culture; format: cell-based; details: 24 h, read-out: Minimum Inhibitory Concentration, MIC
[17] = tested on: Bacillus subtilis 82; experiment: microbe, parasite or virus in culture; format: cell-based; details: 37° C., 24 h, read-out: Minimum Inhibitory Concentration, MIC
[18] = tested on: Staphylococcus aureus 29231; experiment: microbe, parasite or virus in culture; format: cell-based; details: 37° C., 24 h, read-out: Minimum Inhibitory Concentration, MIC
[19] = tested on: Pyogenic Streptococcus; experiment: microbe, parasite or virus in culture; format: cell-based; details: 37° C., 24 h, read-out: Minimum Inhibitory Concentration, MIC
[20] = tested on: Gram-positive Bacteria; format: cell-based
[21] = tested on: Streptococcus pneumoniae M2; experiment: microbe, parasite or virus in culture; format: cell-based; details: 37° C., 24 h, read-out: Minimum Inhibitory Concentration, MIC
[22] = tested on: green Streptococcus 1009; experiment: microbe, parasite or virus in culture; format: cell-based; details: 37° C., 24 h, read-out: Minimum Inhibitory Concentration, MIC
[23] = tested on: Staphylococcus aureus 705 (MRSA); experiment: microbe, parasite or virus in culture; format: cell-based; details: 24 h, read-out: Minimum Inhibitory Concentration, MIC
[24] = tested on: Streptococcus 10342; experiment: MIC broth microdilution; format: cell-based; details: 37° C., 24 h, read-out: Minimum Inhibitory Concentration, MIC
[25] = tested on: Bacillus cereus 2; experiment: microbe, parasite or virus in culture; format: cell-based; details: 37° C., 24 h, read-out: Minimum Inhibitory Concentration, MIC
[26] = tested on: Streptococcus pneumoniae 6301; experiment: microbe, parasite or virus in culture; format: cell-based; details: 37° C., 24 h, read-out: Minimum Inhibitory Concentration, MIC
[27] = tested on: Staphylococcus aureus 703 (MRSA); experiment: microbe, parasite or virus in culture; format: cell-based; details: 24 h, read-out: Minimum Inhibitory Concentration, MIC
[28] = tested on: Clostridium tetani; experiment: microbe, parasite or virus in culture; format: cell-based; details: 24 h
[29] = tested on: Streptococcus agalactiae B; experiment: microbe, parasite or virus in culture; format: cell-based; details: 37° C., 24 h, read-out: Minimum Inhibitory Concentration, MIC
[30] = tested on: Bacillus subtilis 168; experiment: microbe, parasite or virus in culture; format: cell-based; details: 37° C., 24 h, read-out: Minimum Inhibitory Concentration, MIC
[31] = tested on: Enterococcus faecalis 1513 (VRE); experiment: microbe, parasite or virus in culture; format: cell-based; details: 24 h, read-out: Minimum Inhibitory Concentration, MIC
[32] = tested on: Streptococcus pneumoniae 10351; experiment: microbe, parasite or virus in culture; format: cell-based; details: 37° C., 24 h, read-out: Minimum Inhibitory Concentration, MIC
[33] = tested on: Enterococcus faecalis 583 (VRE); experiment: microbe, parasite or virus in culture; format: cell-based; details: 24 h, read-out: Minimum Inhibitory Concentration, MIC
[34] = tested on: Streptococcus pneumoniae 62; experiment: microbe, parasite or virus in culture; format: cell-based; details: 37° C., 24 h, read-out: Minimum Inhibitory Concentration, MIC
[35] = Enterococcus faecalis (VRE), Staphylococcus aureus (MRSA), Streptococcus pneumoniae 6303 (PRSP), Bacillus cereus, Bacillus subtilis, Enterococcus faecalis, Staphylococcus aureus, Streptococcus pneumoniae, Streptococcus agalactiae B and streptococci 4
[36] = read-out: Minimum Inhibitory Concentration, MIC, Microorganism 29, Clostridium tetani, 37° C.
[37] = read-out: Minimum Inhibitory Concentration, MIC, Microorganism 30, Clostridium tetani (second line of that name), 37° C.

Cc1c(-c2ccc(C(F)(F)F)cc2)[nH]c2c(-c3ccc(Cl)cc3Cl)c(C3CC3)nn2c1=O [Compound 21]
MIC [1]: 1.55 µM (≈ 0.741 µg/mL) | Survival rate (%) (life prolongation rate) [2]: 133.2% | Survival [2]: 3.2 days | MIC [3]: 0.33 µM (≈ 0.158 µg/mL) | MIC [4]: 2.5 µM (≈ 1.2 µg/mL) | MIC [5]: 33.7 µM (≈ 16.1 µg/mL) | MIC [6]: 88.5 µM (≈ 42.3 µg/mL) | MIC [7]: 0.35 µM (≈ 0.167 µg/mL) | MIC [8]: 30.3 µM (≈ 14.5 µg/mL) | MIC [9]: 1.25 µM (≈ 0.598 µg/mL) | MIC [10]: 10.5 µM (≈ 5.02 µg/mL) | MIC [11]: 13.5 µM (≈ 6.46 µg/mL) | MIC [12]: 1.33 µM (≈ 0.636 µg/mL) | MIC [13]: 0.32 µM (≈ 0.153 µg/mL) | MIC [14]: 0.28 µM (≈ 0.134 µg/mL) | MIC [15]: 12.3 µM (≈ 5.88 µg/mL) | MIC [16]: 32 µM (≈ 15.3 µg/mL) | MIC [17]: 0.68 µM (≈ 0.325 µg/mL) | MIC [18]: 0.6 µM (≈ 0.287 µg/mL) | MIC [19]: 1.23 µM (≈ 0.588 µg/mL) | inhibition of growth (conclusion from MICs) [20, 35]: significantly inhibited the growth | MIC [21]: 0.02 µM (≈ 0.00957 µg/mL) | MIC [22]: 1.55 µM (≈ 0.741 µg/mL) | MIC [23]: 0.3 µM (≈ 0.143 µg/mL) | MIC [24]: 1.35 µM (≈ 0.646 µg/mL) | MIC [25]: 0.36 µM (≈ 0.172 µg/mL) | MIC [26]: 0.23 µM (≈ 0.11 µg/mL) | MIC [27]: 0.42 µM (≈ 0.201 µg/mL) | MIC [28, 36]: 30.2 µM (≈ 14.4 µg/mL) | MIC [28, 37]: 80.3 µM (≈ 38.4 µg/mL) | MIC [29]: 0.55 µM (≈ 0.263 µg/mL) | MIC [30]: 0.46 µM (≈ 0.22 µg/mL) | MIC [31]: 2.3 µM (≈ 1.1 µg/mL) | MIC [32]: 1.25 µM (≈ 0.598 µg/mL) | MIC [33]: 0.11 µM (≈ 0.0526 µg/mL) | MIC [34]: 0.25 µM (≈ 0.12 µg/mL)

Cc1c(-c2ccc(C#N)cc2)[nH]c2c(-c3ccc(Cl)cc3Cl)c(-c3ccccc3)nn2c1=O [Compound 70]
MIC [1]: 1.32 µM (≈ 0.622 µg/mL) | Survival rate (%) (life prolongation rate) [2]: 253.8% | Survival [2]: 4.6 days | MIC [3]: 0.55 µM (≈ 0.259 µg/mL) | MIC [4]: 0.55 µM (≈ 0.259 µg/mL) | MIC [5]: 125 µM (≈ 59.1 µg/mL) | MIC [6]: 120 µM (≈ 56.8 µg/mL) | MIC [7]: 0.56 µM (≈ 0.264 µg/mL) | MIC [8]: 45.2 µM (≈ 21.3 µg/mL) | MIC [9]: 0.02 µM (≈ 0.00943 µg/mL) | MIC [10]: 2.5 µM (≈ 1.18 µg/mL) | MIC [11]: 12.5 µM (≈ 5.89 µg/mL) | MIC [12]: 0.04 µM (≈ 0.0189 µg/mL) | MIC [13]: 2.5 µM (≈ 1.18 µg/mL) | MIC [14]: 0.35 µM (≈ 0.165 µg/mL) | MIC [15]: 0.23 µM (≈ 0.108 µg/mL) | MIC [16]: 30.6 µM (≈ 14.4 µg/mL) | MIC [17]: 1.25 µM (≈ 0.589 µg/mL) | MIC [18]: 0.55 µM (≈ 0.259 µg/mL) | MIC [19]: 1.33 µM (≈ 0.627 µg/mL) | inhibition of growth (conclusion from MICs) [20, 35]: significantly inhibited the growth | MIC [21]: 0.63 µM (≈ 0.297 µg/mL) | MIC [22]: 0.23 µM (≈ 0.108 µg/mL) | MIC [23]: 0.55 µM (≈ 0.259 µg/mL) | MIC [24]: 1.23 µM (≈ 0.58 µg/mL) | MIC [25]: 0.31 µM (≈ 0.146 µg/mL) | MIC [26]: 0.2 µM (≈ 0.0943 µg/mL) | MIC [27]: 1.25 µM (≈ 0.589 µg/mL) | MIC [28, 36]: 80.2 µM (≈ 37.8 µg/mL) | MIC [28, 37]: 50.2 µM (≈ 23.7 µg/mL) | MIC [29]: 0.25 µM (≈ 0.118 µg/mL) | MIC [30]: 1.25 µM (≈ 0.589 µg/mL) | MIC [31]: 2.5 µM (≈ 1.18 µg/mL) | MIC [32]: 0.55 µM (≈ 0.259 µg/mL) | MIC [33]: 1.25 µM (≈ 0.589 µg/mL) | MIC [34]: 10.5 µM (≈ 4.95 µg/mL)

O=c1[nH]c(-c2ccc(C(F)(F)F)cc2)nc2cc(Cl)ccc12 [Compound 14]
MIC [1]: 30.2 µM (≈ 9.79 µg/mL) | MIC [3]: 221 µM (≈ 71.8 µg/mL) | MIC [4]: 122 µM (≈ 39.7 µg/mL) | MIC [5]: 121 µM (≈ 39.4 µg/mL) | MIC [6]: 133 µM (≈ 43.2 µg/mL) | MIC [7]: 120 µM (≈ 39.1 µg/mL) | MIC [8]: 135 µM (≈ 43.9 µg/mL) | MIC [9]: 100 µM (≈ 32.6 µg/mL) | MIC [10]: 21.5 µM (≈ 6.98 µg/mL) | MIC [11]: 122 µM (≈ 39.8 µg/mL) | MIC [12]: 250 µM (≈ 81.2 µg/mL) | MIC [13]: 15 µM (≈ 4.87 µg/mL) | MIC [14]: 160 µM (≈ 52 µg/mL) | MIC [15]: 13.5 µM (≈ 4.38 µg/mL) | MIC [16]: 125 µM (≈ 40.6 µg/mL) | MIC [17]: 10.3 µM (≈ 3.35 µg/mL) | MIC [18]: 6.31 µM (≈ 2.05 µg/mL) | MIC [19]: 132 µM (≈ 43 µg/mL) | inhibition of growth (conclusion from MICs) ([20]; the majority of Bacillus cereus, Bacillus subtilis and Enterococcus faecalis): significantly inhibited the growth | MIC [21]: 120 µM (≈ 39 µg/mL) | MIC [22]: 126 µM (≈ 40.7 µg/mL) | MIC [23]: 210 µM (≈ 68.3 µg/mL) | MIC [24]: 170 µM (≈ 55.4 µg/mL) | MIC [25]: 20.2 µM (≈ 6.57 µg/mL) | MIC [26]: 141 µM (≈ 45.7 µg/mL) | MIC [27]: 125 µM (≈ 40.6 µg/mL) | MIC [28, 36]: 160 µM (≈ 52 µg/mL) | MIC [28, 37]: 120 µM (≈ 39.1 µg/mL) | MIC [29]: 225 µM (≈ 73.1 µg/mL) | MIC [30]: 12.5 µM (≈ 4.06 µg/mL) | MIC [31]: 130 µM (≈ 42.3 µg/mL) | MIC [32]: 104 µM (≈ 33.6 µg/mL) | MIC [33]: 120 µM (≈ 39.1 µg/mL) | MIC [34]: 100 µM (≈ 32.5 µg/mL)
